According to patent US12031897B2, “Target-locking single-molecule nanoscopy” (Memorial Sloan Kettering Cancer Center, priority 2019, dated 2024):
“Also recorded” adds a separate entry of the source.

What was measured:
[1] = test system: Pou5f1 transcription site (MCP-mNeonGreen nascent RNA); test: MCP-mNeonGreen nascent transcription at the endogenous Pou5f1 locus in mESCs (live-cell imaging); format: cell-based, mouse; conditions: for MCP-mNeonGreen exponential decay time: Pou5f1, mESCs, 10 μM flavopiridol, 10 μM triptolide or 1 μM JQ1, mean±S.D.
Method: All the mESCs were cultured and maintained in +2i media with appropriate selection drugs on 0.1% gelatin-coated dishes, at 37° C. in a humidified 5% CO2 incubator. +2i media contain D-MEM (Thermo Fisher Scientific 10313021), 15% fetal bovine serum (Gemini Bio 100-500), 0.1 mM β-mercaptoethanol (Thermo Fisher Scientific 21985023), 2 mM L-alanyl-L-glutamine (Thermo Fisher Scientific 35050079), 1×MEM nonessential amino acids (Thermo Fisher Scientific 11140076), 1000 U/mL LIF (Millipore ESG1107), […] (Millipore 361559) and 1 μM PD0325901 (Axon Medichem 1408). OMG and NMG SNAP-Rpb1 cells were cultured with +2i media plus 3 μg/ml α-amanitin.
(§1) Before imaging, cells were seeded onto 8-chamber coverglass (LabTek, 155411) coated with 5 μg/ml laminin (BioLamina LN511), in −2i media (OMG) or +2i media (NMG) and appropriate drugs. For SiR staining, cells were labeled with media containing 0.3 μM SiR-BG for 10 mins, at 37° C., followed by three washes with new media.
Wide-Field Cell Imaging Experiments. Live cell imaging experiments (tdPCP-EGFP and MCP-mNeonGreen tracking). For time-lapse imaging, a z-stack of 11 frames at 1 frame/second was acquired, by stepping the sample along the z-axis using the nanopositioning stage (250 nm steps). The CCD data were analyzed using IDL 6.4 (ITTVIS). Maximum projection images were calculated for each stack, and the resulting 11 sec/frame movie was used to track the intensities of individual tdPCP-EGFP-tagged transcription sites. A particle tracking routine (Crocker and Grier, 1996) was used for finding the positions of the transcription site in each frame and linking them into a 2D trajectory. The intensity trace of tdPCP-EGFP at the transcription site was corrected for photo-bleaching using the time trace of tdPCP-EGFP in a nearby nuclear region. The auto-correlation function was calculated (for the tdPCP-EGFP fluctuation analysis), or the data were imported in Origin 8.5.0 (OriginLab) and the trace fitted to a single-exponential decay (for the transcription inhibition experiments).

[2] = test system: Pol II (SiR-Rpb1) at the Pou5f1 transcription site; test: SiR-Rpb1 (Pol II) dynamics at Pou5f1 after drug addition (target-locking); format: cell-based, mouse; conditions: for Rpb1 exponential decay time from fits: Pou5f1, 10 μM flavopiridol, 10 μM triptolide or 1 μM JQ1; for Pol II signal at Pou5f1 upon transcription inhibition: paralleled by nascent RNA loss
Method: The images obtained from the Ixon3 897 detector (e.g., detection system 150) were analyzed on the fly by non-linear least-squares fitting of a 21×21 pixel ROI to a 2D Gaussian peak function implemented in LabVIEW. Axial localization was achieved either though the degree of defocus or based on astigmatism. The coordinates returned by the 2D Gaussian peak fit were passed onto a PID controller that calculated the desired position correction that was commanded to the nanopositioning stage controller. The LabVIEW application ran at sustained speeds of up to 30 frames/second. Before imaging, cells were seeded onto 8-chamber coverglass (LabTek, 155411) coated with 5 μg/ml laminin (BioLamina LN511), in −2i media (OMG) or +2i media (NMG) and appropriate drugs. For SiR staining, cells were labeled with media containing 0.3 μM SiR-BG for 10 mins, at 37° C., followed by three washes with new media. OMG-1 or NMG mESCs (1×106) were transfected with 10 μg PB007-EF1α-Flag-SNAP-Rpb1 (αAmR) and 1 μg pCMV-hyPBase vectors using Lipofectamine 2000 (Invitrogen 11668019). Cells were subjected to 3 mg/ml α-amanitin 2 days post-transfection. Individual α-amanitin-resistant colonies were picked after ˜2 weeks, expanded, labeled with SiR-BG and imaged.

[3] = test system: Cdk9 foci at the Pou5f1 locus; test: Cdk9 cluster signal at Pou5f1 upon inhibition (live-cell confocal/STED scans); format: cell-based, mouse; conditions: for Cdk9 signal at Pou5f1 upon inhibition: 1 μM JQ1 (within 1 min) or 10 μM Flavopiridol
Excerpt: If rapid Pou5f1 shut-down reflects significant Cdk9 portion being recruited through Brd4-acetylated histone recognition, both Brd4 and Cdk9 clustering would dissipate upon JQ1 inhibition. […] Cdk9/Med22 focal accumulation appears to be stabilized through highly-specific molecular recognition-multiple Brd4 molecules binding to multiple acetylated targets throughout the heavily modified Pou5f1 enhancer region—rather than possibly less-selective physicochemical forces, e.g. driven by low-complexity protein domains and RNA.
(§2) For real-time confocal and STED imaging, example implementations may program the wave generator to scan 2 μm×2 μm or 1 μm×1 μm xy areas in 0.8 sec or 0.2 sec respectively. 3D scanning was performed (via, e.g., detection system 150) by acquiring 5 xy scans while moving the stage by 0.5 μm in z between scans. TTL pulses corresponding to single-photon events from the APDs, together with the trigger pulses from the wave generator were detected using a field-programmable gate array (FPGA) data acquisition system (National Instruments, PCIe-7852R).
as §1
(§3) To generate OMG SNAP-Cdk9 targeted cells, OMG-1 mESCs (1×106) were transfected with 10 μg SNAP-Cdk9 donor vector and 0.6 μg espCas9-gRNA-Cdk9 vector. 10 days after transfection, the cells were trypsinized, labeled with SiR-BG and subjected to FACS, generating a first-round SiR-positive pool. This pool was then expanded, stained with SiR-BG and subjected to second FACS round and individual clones were picked and expanded.

[4] = target: T1, Brd4 foci at the Pou5f1 locus (Mus musculus, UniProt Q9ESU6); test: Brd4 cluster signal at Pou5f1 upon inhibition (live-cell confocal/STED scans); format: cell-based; conditions: for Brd4 signal at Pou5f1 upon inhibition: 1 μM JQ1 (within 1 min) or 10 μM Flavopiridol
T1 construct: integrating a SNAP-tag at the N-terminus of the endogenous Brd4; endogenous in cells; host or cells: mouse ESCs OMG-1, homozygous SNAP-Brd4 knock-in clone 9 (printed as 'OMG SNAP-Cdk9 clone 9')
Method: as §2, §1
as §3, with “OMG or NMG SNAP-Brd4” for “OMG SNAP-Cdk9”, “OMG-1 or NMG” for “OMG-1”, “μg SNAP-Brd4” for “μg SNAP-Cdk9”, “μg espCas9-gRNA-Brd4” for “μg espCas9-gRNA-Cdk9”

How did the “Hill equation n, relative MCP signal vs. [JQ1]” value ([1]; Pou5f1) turn out when Cc1sc2c(c1C)C(c1ccc(Cl)cc1)=N[C@@H](CC(=O)OC(C)(C)C)c1nnc(C)n1-2 [JQ1] was run?
The value was 1.1±0.7.

What about the “MCP-mNeonGreen exponential decay time” value [1] of the same molecule?
Its value is 300 ± 136 s.

What about the “response of individual Pou5f1 transcription sites at intermediate inhibitor concentration” value ([1]; intermediate [A-485] or [JQ1]) of the same molecule?
Its value is “decays to a new finite plateau; also recorded: attenuated output, without completely shutting down”.

What about the Pou5f1 transcription activity ([1]; upon JQ1 (FIG. 7A, 1 μM)) of the same molecule?
The Pou5f1 transcription activity was “abruptly abolishes”.

What about the “Rpb1 exponential decay time from fits” value [2] of the same molecule?
The value was 310 ± 123 s.

What about the “Cdk9 signal at Pou5f1 upon inhibition” value [3] of the same molecule?
The value was “drop sharply; also recorded: drop close to noise-floor”.

What about the “Hill equation n, relative Cdk9 signal vs. [JQ1]” value ([3]; Pou5f1) of the same molecule?
Its value is 0.8±0.1.

And the “Brd4 signal at Pou5f1 upon inhibition” value [4]?
Its value is “drop sharply”.

And the “Hill equation n, relative Brd4 signal at Pou5f1 vs. [JQ1]” value ([4]; Pou5f1)?
Its value is 1.3±0.3.

CC(C)[C@]12O[C@H]1[C@@H]1O[C@]13[C@]1(O[C@H]1C[C@H]1C4=C(CC[C@@]13C)C(=O)OC4)[C@@H]2O [triptolide] was tested. Which “MCP-mNeonGreen exponential decay time” value [1] did it give?
The value was 378 ± 115 s.

What about the “Rpb1 exponential decay time from fits” value [2] of the same molecule?
The value was 565 ± 109 s.

And the “Pol II signal at Pou5f1 upon transcription inhibition” value [2]?
Its value is “gradual Pol II signal loss”.

With CN1CC[C@H](c2c(O)cc(O)c3c(=O)cc(-c4ccccc4Cl)oc23)[C@H](O)C1 [flavopiridol] as the molecule, how does the “MCP-mNeonGreen exponential decay time” value [1] read?
The value was 378 ± 193 s.

And the “Rpb1 exponential decay time from fits” value [2]?
Its value is 347 ± 104 s.

What about the “Pol II signal at Pou5f1 upon transcription inhibition” value [2] of the same molecule?
Its value is “gradual Pol II signal loss”.

What about the “Cdk9 signal at Pou5f1 upon inhibition” value [3] of the same molecule?
The value was “not lost”.

What about the “Brd4 signal at Pou5f1 upon inhibition” value [4] of the same molecule?
Its value is “not lost”.
